How the values were obtained:
[1] = molecular target: NMDA/polyamine sites (polyamine-sensitive [3H]-ifenprodil binding, rat cerebral cortex membranes) (Rattus norvegicus, UniProt P35439+Q00960); assay: NMDA/polyamine site [3H]-ifenprodil binding assay; details: [3H]-ifenprodil 4 nM, rat cerebral cortex homogenate
Excerpt: Ifenprodil and eliprodil have been reported as antiischaemic agents (Gotti et al., 1988) and both compounds have been reported to associate with the polyamine sensitive site of the NMDA receptor complex (Carter et al., 1989 and 1990; Reynolds et al., 1989; and Robinson et al., 1990). […] These agents bind independently of the NMDA ion channel (Carter et al., 1991; Reynolds et al., 1989), appear not to cause behavioural effects (Carter et al., 1991), and may target specific heteromeric NMDA receptors (Williams, 1993; Nicola et al., 1994) uniquely distributed in forebrain regions (Standaert et al., 1994) affected in ischaemia and head trauma. […] Accordingly, compounds of the present invention are capable of binding to the NMDA receptor complex and providing a neuroprotective effect, or otherwise providing benefit in other conditions related to NMDA receptors.
Briefly, crude membrane suspensions containing 10% rat cerebral cortex were prepared in aqueous 50 mM Tris-HCl buffer (pH 7.4, 4° C.), using a Polytron homogeniser.
Nonspecific binding was determined using spermine (10 μM).
The sigma receptor ligand 3PPP(+)-3-(3-hydroxyphenyl)-N-propyl-piperidine (100 μM) was included in all tubes to block binding to sigma receptors. […] Filterpapers were collected, combined with scintillant and bound radioactivity determined using a Packard Scintillation counter.

[2] = tested on: murine neocortical neurones; assay: NMDA-induced toxicity in neuronal cultures (MTT assay); assay type: cell-based; details: Mus musculus, NMDA 600 μM, 1 h, compound added 30 min prior, cultures at 8 days in vitro, read-out: EC50 for inhibition of NMDA-induced toxicity
Method: Assay for NMDA-induced Toxicity in Neuronal Cultures
Neuronal cell death was assessed using a 3-(4,5-dimethylthiazol-2-yl)-2,5-diphenyltetrazoliurn bromide (MTT) assay in which NMDA-induced cellular changes are reflected as altered mitochondrial activity (Ankarcrona et al., 1995), as estimated by the formation of a formazan dye, which is measured spectrophotometrically. The procedure employed is essentially that of Roehlm et al. (1991) with minor modifications as previously described elsewhere in work from our laboratories Larm et al. (1996).
Primary cultures of murine neocortical neurones were established as described elsewhere (Larm et al., 1996). The effects of experimental compounds were tested in the cultures at 8 days in vitro. Exposure to NMDA (600 μM, 1 h) and other compounds was performed in an humidified incubator (5% CO2, 8% O2) at 37° C. in anti-oxidant free medium with compounds under evaluation being added 30 min prior to NMDA. For these conditions the culture medium was modified by omitting the following components: D,L- -tocopherol, D,L- -tocopherol acetate, catalase, superoxide dismutase and L-glutamine. Other details are described in Larm et al. (1996). Absorbence was read at 570 nm using a Ceres UV900 microplate reader. Control cultures were included in each experiment containing either vehicle alone or vehicle plus compound. […]

[3] = tested on: cultured cerebellar granule cells; assay: Veratridine induced toxicity in neuronal cultures (MTT assay); details: Mus musculus

Sequence of NMDA/polyamine sites (polyamine-sensitive [3H]-ifenprodil binding, rat cerebral cortex membranes) (Q00960 27-1482, other chains not shown): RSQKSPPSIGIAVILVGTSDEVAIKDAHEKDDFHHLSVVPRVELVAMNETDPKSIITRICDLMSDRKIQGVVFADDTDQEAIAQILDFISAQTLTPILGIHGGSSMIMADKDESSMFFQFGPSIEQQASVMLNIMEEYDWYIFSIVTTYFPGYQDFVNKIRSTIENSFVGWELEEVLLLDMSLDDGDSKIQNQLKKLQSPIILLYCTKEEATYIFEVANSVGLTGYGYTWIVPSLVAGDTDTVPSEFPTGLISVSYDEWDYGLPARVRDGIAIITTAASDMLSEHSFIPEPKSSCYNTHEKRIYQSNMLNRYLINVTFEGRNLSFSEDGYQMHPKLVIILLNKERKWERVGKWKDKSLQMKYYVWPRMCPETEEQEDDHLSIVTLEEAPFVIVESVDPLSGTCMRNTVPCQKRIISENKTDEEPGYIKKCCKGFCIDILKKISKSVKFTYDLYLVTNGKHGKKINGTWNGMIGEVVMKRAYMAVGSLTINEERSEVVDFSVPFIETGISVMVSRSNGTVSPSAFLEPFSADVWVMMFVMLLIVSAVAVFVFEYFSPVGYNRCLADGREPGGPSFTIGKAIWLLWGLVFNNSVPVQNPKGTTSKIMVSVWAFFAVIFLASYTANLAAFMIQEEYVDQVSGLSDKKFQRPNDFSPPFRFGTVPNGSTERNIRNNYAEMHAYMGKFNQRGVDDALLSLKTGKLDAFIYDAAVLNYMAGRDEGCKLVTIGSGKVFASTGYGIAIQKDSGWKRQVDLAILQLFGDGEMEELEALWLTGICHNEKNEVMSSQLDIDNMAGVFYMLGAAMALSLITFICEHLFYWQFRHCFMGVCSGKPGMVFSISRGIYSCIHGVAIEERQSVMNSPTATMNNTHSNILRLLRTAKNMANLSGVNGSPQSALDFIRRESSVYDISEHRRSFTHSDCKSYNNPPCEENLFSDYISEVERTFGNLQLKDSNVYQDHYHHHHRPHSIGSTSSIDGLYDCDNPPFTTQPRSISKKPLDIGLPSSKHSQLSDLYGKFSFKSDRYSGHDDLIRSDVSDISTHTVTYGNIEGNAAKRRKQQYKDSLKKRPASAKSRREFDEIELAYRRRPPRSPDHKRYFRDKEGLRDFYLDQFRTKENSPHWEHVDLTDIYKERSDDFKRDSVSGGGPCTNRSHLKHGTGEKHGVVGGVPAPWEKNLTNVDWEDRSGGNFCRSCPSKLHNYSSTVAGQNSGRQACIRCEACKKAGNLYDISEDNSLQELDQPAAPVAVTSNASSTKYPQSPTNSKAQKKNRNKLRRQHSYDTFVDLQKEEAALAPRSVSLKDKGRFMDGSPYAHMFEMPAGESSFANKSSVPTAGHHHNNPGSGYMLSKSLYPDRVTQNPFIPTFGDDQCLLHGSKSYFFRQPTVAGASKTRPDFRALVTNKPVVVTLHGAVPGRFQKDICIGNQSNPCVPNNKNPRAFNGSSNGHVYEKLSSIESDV

IC50 ([1]; 2 h at 4° C., 3PPP 100 μM to block sigma sites): 4.33 ± 1.56 µM
Ki ([1]; competition curves analysed with Radlig): 1400 ± 47 nM
Structure (SMILES): OC(Cc1cc(N2CCCC2)nc(N2CCCC2)n1)c1cccc(OC(F)(F)F)c1 (stereo not shown) [Compound 17, 6-[2-hydroxy-2-(3-trifluoromethoxyphenyl)ethyl]-2,4-di-N-pyrrolidinylpyrimidine]
EC50 [2]: 1700 nM
EC50 [3]: 1700 nM

Source: patent US6881740B1, “Pharmaceutical agents” (Monash University, priority 1998, dated 2005)
